Test results: US20250353859A1, “COMPOUNDS AS CCR6 INHIBITORS” (Hoffmann-La Roche Inc., priority 2023, published 2025)

How the values were obtained:
Human CD4+ T cells = test: CD4+ T cells chemotaxis assay towards CCL20; format: cell-based; conditions: CD4+ T cell, 3 h
Source text: Human CD4+ T cells were isolated from buffy coats of healthy donors using aCD4+ T Cell Isolation Kit(Miltenyi Biotec 130-096-533). Isolated T cells were stimulated overnight with anti-CD3 and anti-CD28 antibodies (Biolegend 300314/302934) in growth medium (RPMI1640, 10% heat-inactivated FBS, 1× pen/strep (Gibco 15140)). For the chemotaxis assay, Corning Transwell plates were used with a pore size of 5 m (Corning 3388). T cells were counted and diluted to 6*10^6 cells/ml in chemotaxis medium (RPMI1640, 1% BSA, pen/strep). Compounds were four-fold serially diluted in DMSO. Further dilutions were made in chemotaxis medium. Cells were incubated with test compounds for 30 min at 37° C. prior to initiation of the assay (3*10^6 cells/ml). Final DMSO concentration in the assay was 0.2%. Wells of the Transwell plates were filled with 200 μl chemotaxis medium containing 150 ng/ml CCL20 (R&D systems 360-MP). 50 μl of the cell/compound suspension was added to the inserts of the Transwell plates (150,000 cells/insert). The Transwell plates were placed in an incubator at 37° C., 5% CO2 for 3 h. After 3 h, the number of migrated cells was quantified using CellTiter Glo (Promega). Percentage inhibition values were calculated based on the low and high signal obtained with 0.2% DMSO in chemotaxis medium without and with CCL20, respectively. The relative Log IC50 was determined with GraphPad Prism 9 using a four-parameter dose-response model.

human CCR6 = biological target: T1, human CCR6 (Homo sapiens, UniProt P51684); test: Human CCR6-CRE reporter assay; format: cell-based; parameters: The second construct contained the open reading frame of human CCR6 in the pUNO1 backbone; host or cells: 293FT cells (transient transfection with TransIT-293); conditions: 293FT cells transfected with human CCR6 and CRE-luciferase; Forskolin + CCL20, 5 h; relative Log IC50; read-out: CCR6-CRE reporter (converted)
T1 sequence (P51684 1-374): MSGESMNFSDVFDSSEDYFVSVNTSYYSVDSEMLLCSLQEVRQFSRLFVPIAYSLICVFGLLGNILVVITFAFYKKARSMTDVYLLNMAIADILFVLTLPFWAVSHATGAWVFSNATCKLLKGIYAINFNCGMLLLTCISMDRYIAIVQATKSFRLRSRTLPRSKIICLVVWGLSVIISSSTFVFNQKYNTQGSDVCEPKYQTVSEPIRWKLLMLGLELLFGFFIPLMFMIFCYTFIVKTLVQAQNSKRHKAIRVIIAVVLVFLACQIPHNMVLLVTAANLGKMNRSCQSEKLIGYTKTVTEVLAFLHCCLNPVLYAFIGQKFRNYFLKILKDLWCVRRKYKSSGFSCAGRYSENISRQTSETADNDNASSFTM
In short: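 293FT cells transiently co-transfected with human CCR6 and a CRE-luc2P reporter, used 48 h later. Compounds in medium with 6 μM forskolin and 6 nM CCL20, 0.1% DMSO final, 5 h at 37° C. Luminescence read; relative log IC50 from a four-parameter fit.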

O=c1[nH]nc2ccc(-c3ccc(S(=O)(=O)N4CCC(Nc5ccc(SC(F)(F)F)cn5)CC4)cc3)cn12 [Example 74, 6-(4-{[4-({5-[(trifluoromethyl)sulfanyl]pyridin-2-yl}amino)piperidin-1-yl]sulfonyl}phenyl)-2H,3H-[1,2,4]triazolo[4,3-a]pyridin-3-one]
IC50 (Human CD4+ T cells): 12.6 nM | IC50 (human CCR6): 79.4 nM
